According to patent publication US4731109A, “Herbicidal 2-haloacetanilides” (Monsanto Company, priority 1982, dated 1988):
Where two headings read alike, the source gives them in different places.

How the values were obtained:
Type in all cases: in vivo
[1] = test system: purple nutsedge; assay: Greenhouse pre-emergence GR15/GR85 selectivity test; conditions: Table XV
Description: (§1) A good grade of top soil is placed in aluminum pans and compacted to a depth of three-eighths to one-half inch from the top of the pan. On the top of the soil is placed a number of seeds or vegetative propagules of various plant species. The soil required to level fill the pans after seeding or adding vegetative propagules is weighed into a pan. The soil and a known amount of the active ingredient applied in a solvent or as a wettable powder suspension are thoroughly mixed, and used to cover the prepared pans. After treatment, the pans are given an initial overhead irrigation of eater, equivalent to one-fourth inch (0.64 cm) rainfall, then watered by subirrigation as need to give adequate moisture for germination and growth. As an alternative procedure, the overhead irrigation may be omitted. Observations are made about 2-3 weeks after seeding and treatment.
(§2) In the discussion and tables of data below, reference is made to herbicide application rates symbolized as "GR15 " and "GR85 "; these rates are given in kilograms per hectare (kg/ha) which are convertible into pounds per acre (lbs/A) by dividing the kg/ha rate by 1.12.
(§3) A further guide to the effectiveness of a chemical as a selective herbicide is the "selectivity factor" ("SF") for a herbicide in given crops and weeds. The selectivity factor is a measure of the relative degree of crop safety and weed injury and is expressed in terms of the GR15 /GR85 ratio, i.e., the GR15 rate for the crop divided by the GR85 rate for the weed, both rates in kg/ha (lb/A). In the tables below, selectivity factors are shown in parenthesis following the GR85 rate for each weed; the symbol "NS" indicates "non-selective". Marginal or undetermined selectivity is indicated by a dash (--).
(§4) Additionally, pre-emergence herbicidal data from other tests have established that compounds according to this invention also selectively suppress quackgrass, yellow nutsedge and/or other weeds in one or more of the crops cotton, peanuts, bush beans and/or rape. For example, in Table VI are presented data showing the herbicidal selectivity of the compounds of Examples 1 and 2 against quackgrass in rape and snap beans. Unless otherwise noted; greenhouse tests in Table VI and in other tables below involved herbicide treatments by soil incorporation and an initial overhead irrigation followed by subirrigation as described above.
In other greenhouse tests, compounds according to this invention have shown selective control of a variety of annual and perennial weeds in various crops. As further illustrative, the compound of Example 1 selectively controlled purple nutsedge in both corn nd soybeans, the respective crop/weed GR15 /GR85 ratios (expressed in kg/ha) being 0.67/0.25 (S.F.=2.7) in corn and 1.1/0.25 (S.F.=4.5) in soybeans. The compound of Example 8 has shown selective control of yellow nutsedge and quackgrass in corn and soybeans. The respective crop/yellownutsedge GR15 /GR85 ratios being >2.2/0.95 (S.F.=2.5) in corn; 2.2/0.5 (SF=4.5) in soybeans and the respective GR15 /GR85 ratios for both corn and soybeans in quackgrass being >2.2/0.5 (S.F.=4.5). In a test against yellow nutsedge in cotton, the GR15 /GR85 ratio (average of two replicates) was 2.0/0.95 (S.F.=2).
In another greenhouse test, the compounds of Examples 3-5, 9 and 10 were tested for their herbicidal efficacy against a variety of resistant annual and perennial weeds in rape.

[2] = test system: lima beans; assay: as above; conditions: Table XVI
Description: as §1, §2, §3, §4
(§5) Additional greenhouse tests were made to test certain compounds of this invention against a plurality of problem weeds in peanuts and lima beans; except for fall panicum, the test weeds are particularly resistant weeds; the test data is set forth in Table XVI.
(§6) In Table XVI, the selectivity factors for the test compounds for each weed in lima beans is shown as the first or upper value in parenthesis and the selectivity factors for each weed in peanuts is shown as the second or lower value in parenthesis for each compound. For example, the selectivity factor for the compound of Example 3 for seedling johnsongrass in lima beans is 2.1 and in peanuts, >4.9; the selectivity factor for Texas panicum in lima beans is 1.1 and in peanuts, >2.6, etc.

[3] = test system: peanuts; assay: as above; conditions: Table XVI
Description: as §1, §2, §3, §4, §5, §6

[4] = test system: Barnyardgrass; assay: Resistance to leaching and resulting herbicidal efficacy; conditions: for inhibition at 140 g/ha / inhibition at 560 g/ha / inhibition at 2200 g/ha: Echinochloa crus-galli, read-out: Percent Inhibition
Method: Laboratory tests were conducted to determine the resistance of herbicides according to this invention to leaching into the soil and resulting herbicidal efficacy. […] The pots containing the treated soil were subjected to leaching by placing on a turntable which rotated under two nozzle tips of a water container calibrated to deliver one inch (2.5 cm) of water per hour simulating rainfall. Leaching rates were adjusted by varying the amount of time on the turntable. Water was delivered to the soil in the pots and allowed to percolate through the filter paper and drainage holes. The pots were then allowed to sit for three days at ambient room temperature. The treated soil in the pots was then removed, crumbled and placed as a surface layer on top of other pots containing the above soils seeded with barnyardgrass seeds. The pots were then placed on greenhouse benches, sub-irrigated and allowed to grow for 2-3 weeks. Visual ratings of percent growth inhibition compared to control (untreated) pots and fresh weights for barnyardgrass were recorded; the data from the control represents six replications and that for the test compounds three replications; test data are shown in Table XVIII.

[5] = test system: prickly sida; assay: Greenhouse pre-emergence GR15/GR85 selectivity test; conditions: Table XV
How it was run: (§7)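 Pre-emergence soil-incorporation test: seeded pans were covered with topsoil mixed with active ingredient (in solvent or as wettable powder), overhead-irrigated (0.64 cm) or not, then subirrigated. Plants were scored about 2-3 weeks after treatment. GR15/GR85 rates are in kg/ha, and selectivity factor is crop GR15 divided by weed GR85.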

[6] = test system: common purslane; assay: as above; conditions: Table XV
How it was run: as §7

[7] = test system: redroot pigweed; assay: as above; conditions: Table XV
How it was run: as §7

[8] = Ray silt loam, 0.14 Kg/Ha, rain 0 cm
[9] = Ray silt loam, 0.14 Kg/Ha, rain 1.27 cm
[10] = Ray silt loam, 0.14 Kg/Ha, rain 5.08 cm
[11] = Ray silt loam, 0.14 Kg/Ha, rain 10.61 cm
[12] = Ray silt loam, 0.56 Kg/Ha, rain 0 cm
[13] = Ray silt loam, 0.56 Kg/Ha, rain 1.27 cm
[14] = Ray silt loam, 0.56 Kg/Ha, rain 5.08 cm
[15] = Ray silt loam, 0.56 Kg/Ha, rain 10.16 cm
[16] = Ray silt loam, 2.2 Kg/Ha, rain 0 cm
[17] = Ray silt loam, 2.2 Kg/Ha, rain 1.27 cm
[18] = Ray silt loam, 2.2 Kg/Ha, rain 5.08 cm
[19] = Ray silt loam, 2.2 Kg/Ha, rain 10.16 cm

Cc1cccc(C(F)(F)F)c1N(COC(C)C)C(=O)CCl [Example 4, N--(isopropoxymethyl)-2'-trifluoromethyl-6'-methyl-2-chloroacetanilide]
GR85 Rate [1]: 0.25 Kg/Ha | selectivity factor (GR15/GR85) ([1]; in rape): > 4.5 | GR15 Rate [2]: > 1.12 Kg/Ha | GR15 Rate [3]: 0.98 Kg/Ha | inhibition at 140 g/ha ([4]; Drummer silt clay, 0.14 Kg/Ha, rain 0 cm): 70% | inhibition at 140 g/ha ([4]; Drummer silt clay, 0.14 Kg/Ha, rain 1.27 cm): 96% | inhibition at 140 g/ha ([4]; Drummer silt clay, 0.14 Kg/Ha, rain 5.08 cm): 85% | inhibition at 560 g/ha ([4]; Drummer silt clay, 0.56 Kg/Ha, rain 0 cm): 100% | inhibition at 560 g/ha ([4]; Drummer silt clay, 0.56 Kg/Ha, rain 1.27 cm): 100% | inhibition at 560 g/ha ([4]; Drummer silt clay, 0.56 Kg/Ha, rain 5.08 cm): 100% | inhibition at 560 g/ha ([4]; Drummer silt clay, 0.56 Kg/Ha, rain 10.16 cm): 96% | inhibition at 2200 g/ha ([4]; Drummer silt clay, 2.2 Kg/Ha, rain 0 cm): 100% | inhibition at 2200 g/ha ([4]; Drummer silt clay, 2.2 Kg/Ha, rain 1.27 cm): 100% | inhibition at 2200 g/ha ([4]; Drummer silt clay, 2.2 Kg/Ha, rain 5.08 cm): 100% | inhibition at 2200 g/ha ([4]; Drummer silt clay, 2.2 Kg/Ha, rain 10.16 cm): 100% | inhibition at 140 g/ha [4, 8]: 98% | inhibition at 140 g/ha [4, 9]: 90% | inhibition at 140 g/ha [4, 10]: 38% | inhibition at 140 g/ha [4, 11]: 12% | inhibition at 560 g/ha [4, 12]: 99% | inhibition at 560 g/ha [4, 13]: 100% | inhibition at 560 g/ha [4, 14]: 89% | inhibition at 560 g/ha [4, 15]: 17% | inhibition at 2200 g/ha [4, 16]: 100% | inhibition at 2200 g/ha [4, 17]: 100% | inhibition at 2200 g/ha [4, 18]: 92% | inhibition at 2200 g/ha [4, 19]: 71% | inhibition at 140 g/ha ([4]; Drummer silt clay, 0.14 Kg/Ha, rain 10.61 cm): 47% | Fresh Weight [4, 8]: 0.01 Grams | Fresh Weight [4, 9]: 0.41 Grams | Fresh Weight [4, 10]: 2.77 Grams | Fresh Weight [4, 11]: 3.62 Grams | Fresh Weight [4, 12]: 0.02 Grams | Fresh Weight [4, 13]: 0 Grams | Fresh Weight [4, 14]: 0.44 Grams | Fresh Weight [4, 15]: 3.41 Grams | Fresh Weight [4, 16]: 0 Grams | Fresh Weight [4, 17]: 0 Grams | Fresh Weight [4, 18]: 0.31 Grams | Fresh Weight [4, 19]: 1.18 Grams | GR85 Rate [5]: > 1.12 Kg/Ha | GR85 Rate [6]: > 1.12 Kg/Ha | GR85 Rate [7]: 0.50 Kg/Ha | selectivity factor (GR15/GR85) ([7]; in rape): > 2.2
